# Measurements: paper PMC6277767, “Broad and Region-Specific Impacts of the Synthetic Cannabinoid CP 55,940 in Adolescent and Adult Female Mouse Brains” (Frontiers in Molecular Neuroscience, 2018)
# Test system: CD1 female mouse brain lipidome
# Test: Brain-region lipid levels (HPLC/MS/MS lipidomics) 2 h after single i.p. 3 mg/kg CP 55,940 vs vehicle
# Assay type: in vivo
# Parameters: N-arachidonoyl phenylalanine level, Mean / N-stearoyl tryptophan level, Mean / N-stearoyl proline level, Mean / N-stearoyl leucine level, Mean / N-stearoyl phenylalanine level, Mean / N-stearoyl serine level, Mean / N-stearoyl methionine level, Mean: unit: moles per gram
# Method: The Bloomington Institutional Animal Care and Use Committee of Indiana University reviewed and approved the animal procedures. Female mice from the CD1 strain were utilized to match our study examining THC’s effects on the brain lipidome ([Leishman et al., 2018]). Mice were given a single i.p. injection of either 3 mg/kg CP or 1:1:18 cremophor:ethanol:saline vehicle (please refer to the section “3 mg/kg CP Is Relevant for Synthetic Cannabinoid Abuse and Has Stronger Effects on the Female Mouse Brain Lipidome During Adolescence” for a justification of dose and use of female mice). Three different age groups were given injections: PND 35 and PND 50 adolescents, and adult mice (PND 113). At least eight mice in each age group received CP and at least eight received vehicle. Matching the THC study time course ([Leishman et al., 2018]), mice were sacrificed via rapid decapitation 2 h after injection. Brains were immediately removed and flash-frozen in liquid nitrogen, and then stored at -80°C until dissections were performed. Brains were dissected on an ice-cold dissection plate into the following regions: STR, HIPP, CER, THAL, CTX, HYP, MID, and STEM. These abbreviations for these brain areas will be used exclusively when discussing the results generated by these specific dissections. Each dissected area was immediately placed in liquid nitrogen and then stored at -80°C until used for lipid extraction.
# Tissue extracts were performed as previously described ([Bradshaw et al., 2006]; [Stuart et al., 2013]; [Raboune et al., 2014]; [Leishman et al., 2016a],[b], [2017], [2018]). First, samples were shock frozen in liquid nitrogen, weighed, and transferred to a centrifuge tube. The mass of the largest sample was multiplied by 50 to determine how many milliliters of HPLC-grade methanol (Fisher, Fair Lawn, NJ, United States) to add. Then, samples were spiked with 500 pmol deuterium-labeled NAGly (d8NAGly; Cayman Chemical, Ann Arbor, MI, United States). Samples were placed on ice in darkness for 2 h then individually homogenized and centrifuged at 19,000 × g for 20 min at 20°C. Supernatants were diluted with HPLC water (purified in house) to make a solution of 75% water, 25% supernatant. Lipids were partially purified on C18 solid phase extraction columns (Agilent, Palo Alto, CA, United States). A series of four elutions with 1.5 mL of 60%, 75%, 85%, and 100% methanol were collected ([Stuart et al., 2013]; [Leishman et al., 2016a],[b], [2018]).
# As previously described ([Bradshaw et al., 2006]; [Tan et al., 2006]; [Smoum et al., 2010]; [Stuart et al., 2013]; [Tortoriello et al., 2013]; [Raboune et al., 2014]; [Leishman et al., 2016a],[b], [2017], [2018]), samples were analyzed using an Applied Biosystems API 3000 triple quadrupole mass spectrometer with electrospray ionization (Foster City, CA, United States). Using an Agilent XDB-C18 reversed phase analytical column and optimized mobile phase gradients, 20 μL from each elution were chromatographed. Two Shimadzu 10ADvp pumps (Columbia, MD, United States) provided the pressure for gradient elution. Mobile phase A: 20% methanol, 80% water (v/v) and 1 mM ammonium acetate (Sigma, St. Louis, MO, United States). Mobile phase B: 100% methanol, 1 mM ammonium acetate. Every method run began with 0% mobile phase B, reached 100% mobile phase B flowing at 0.2 mL/min, and gradually returned to 0% mobile phase B.
# This screening library will be referred to as the lipidome when discussing data from this study. HPLC/MS/MS data were analyzed using Analyst software (Applied Biosystems) ([Bradshaw et al., 2006]; [Tan et al., 2006]; [Stuart et al., 2013]; [Tortoriello et al., 2013]; [Raboune et al., 2014]; [Leishman et al., 2016a],[b], [2017], [2018]). Chromatograms (Supplementary Figure 3) were generated by determining the retention time of analytes from the analytical column with a [M-1] or [M+1] parent peak and a fragmentation peak corresponding to the programmed values. […]
# [1] = adult hypothalamus, 3mg/kg CP 55,940, p .001
# [2] = adult hypothalamus, 3mg/kg CP 55,940, p .002
# [3] = adult hypothalamus, 3mg/kg CP 55,940, p .005
# [4] = adult hypothalamus, 3mg/kg CP 55,940, p .020
# [5] = adult hypothalamus, 3mg/kg CP 55,940, p .036
# [6] = adult hypothalamus, 3mg/kg CP 55,940, p .060
# [7] = adult hypothalamus, 3mg/kg CP 55,940, p .073
# [8] = adult midbrain, 3mg/kg CP 55,940
# [9] = adult midbrain, 3mg/kg CP 55,940, p .000
# [10] = adult midbrain, 3mg/kg CP 55,940, p .003
# [11] = adult midbrain, 3mg/kg CP 55,940, p .023
smiles,measurement,setting,value
"CCCCCCC(C)(C)c1ccc([C@@H]2C[C@H](O)CC[C@H]2CCCO)c(O)c1 [CP 55,940]","THC level, Mean","adult hypothalamus, 3 mg/kg CP 55,940",BDL
same,PGF2α Direction (relative to Veh),[1],↓
same,PGF2α Magnitude (x Veh level),[1],0.79
same,phosphoLEA Direction (relative to Veh),[2],↓
same,phosphoLEA Magnitude (x Veh level),[2],0.74
same,6-ketoPGF1α Direction (relative to Veh),[3],↓
same,6-ketoPGF1α Magnitude (x Veh level),[3],0.61
same,N-palmitoyl phenylalanine Direction (relative to Veh),[4],↑
same,N-palmitoyl phenylalanine Magnitude (x Veh level),[4],1.86
same,PGE2 Direction (relative to Veh),[5],↑
same,PGE2 Magnitude (x Veh level),[5],1.18
same,N-arachidonoyl taurine Direction (relative to Veh),[6],↑
same,N-arachidonoyl taurine Magnitude (x Veh level),[6],1.24
same,N-arachidonoyl GABA Direction (relative to Veh),[7],↓
same,N-arachidonoyl GABA Magnitude (x Veh level),[7],0.83
same,"2-arachidonoyl glycerol level, Mean",[8],3.47E-09
same,"2-linoleoyl glycerol level, Mean",[8],3.28E-10
same,"2-oleoyl glycerol level, Mean",[8],4.34E-09
same,"2-palmitoyl glycerol level, Mean",[8],8.64E-11
same,"6-ketoPGF1α level, Mean",[8],3.28E-11
same,"11-OH-THC level, Mean",[8],BDL
same,"11-nor-9-carboxyTHC level, Mean",[8],BDL
same,"Arachidonic acid level, Mean",[8],5.39E-10
same,"Cannabidiol level, Mean",[8],BDL
same,"Linoleic acid level, Mean",[8],2.55E-10
same,"N- stearoyl valine level, Mean",[8],3.08E-14
same,"N-arachidonoyl GABA level, Mean",[8],2.05E-11
same,"N-arachidonoyl alanine level, Mean",[8],8.5E-13
same,"N-arachidonoyl dopamine level, Mean",[8],BDL
same,"N-arachidonoyl ethanolamine level, Mean",[8],1.42E-11
same,"N-arachidonoyl glycine level, Mean",[8],7.94E-13
same,"N-arachidonoyl phenylalanine level, Mean",[8],2.39E-13
same,"N-arachidonoyl proline level, Mean",[8],BDL
same,"N-arachidonoyl serine level, Mean",[8],4.34E-13
same,"N-arachidonoyl taurine level, Mean",[8],5.5E-11
same,"N-arachidonoyl tryptophan level, Mean",[8],BDL
same,"N-arachidonoyl tyrosine level, Mean",[8],1.09E-12
same,"N-docosahexaenoyl GABA level, Mean",[8],8.66E-12
same,"N-docosahexaenoyl ethanolamine level, Mean",[8],3.34E-11
same,"N-docosahexaenoyl glycine level, Mean",[8],1.02E-13
same,"N-docosahexaenoyl methionine level, Mean",[8],BDL
same,"N-docosahexaenoyl phenylalanine level, Mean",[8],1.11E-13
same,"N-docosahexaenoyl proline level, Mean",[8],BDL
same,"N-docosahexaenoyl tryptophan level, Mean",[8],BDL
same,"N-linoleoyl alanine level, Mean",[8],4.8E-13
same,"N-linoleoyl ethanolamine level, Mean",[8],1.5E-11
same,"N-linoleoyl glycine level, Mean",[8],4.47E-14
same,"N-linoleoyl methionine level, Mean",[8],BDL
same,"N-linoleoyl proline level, Mean",[8],BDL
same,"N-linoleoyl serine level, Mean",[8],2.09E-11
same,"N-linoleoyl tryptophan level, Mean",[8],BDL
same,"N-linoleoyl tyrosine level, Mean",[8],BDL
same,"N-nervonoyl valine level, Mean",[8],BDL
same,"N-oleoyl GABA level, Mean",[8],1.69E-11
same,"N-oleoyl alanine level, Mean",[8],2.56E-12
same,"N-oleoyl dopamine level, Mean",[8],BDL
same,"N-oleoyl ethanolamine level, Mean",[8],3.41E-10
same,"N-oleoyl glycine level, Mean",[8],4.95E-13
same,"N-oleoyl leucine level, Mean",[8],1.1E-12
same,"N-oleoyl phenylalanine level, Mean",[8],1.49E-12
same,"N-oleoyl proline level, Mean",[8],BDL
same,"N-oleoyl serine level, Mean",[8],1.28E-10
same,"N-oleoyl tryptophan level, Mean",[8],BDL
same,"N-oleoyl tyrosine level, Mean",[8],7.3E-13
same,"N-oleoyl valine level, Mean",[8],2.38E-14
same,"N-palmitoyl GABA level, Mean",[8],2.91E-11
same,"N-palmitoyl alanine level, Mean",[8],1.61E-12
same,"N-palmitoyl ethanolamine level, Mean",[8],6.9E-11
same,"N-palmitoyl glycine level, Mean",[8],1.85E-12
same,"N-palmitoyl leucine level, Mean",[8],2.19E-12
same,"N-palmitoyl methionine level, Mean",[8],2.91E-12
same,"N-palmitoyl phenylalanine level, Mean",[8],1.17E-12
same,"N-palmitoyl proline level, Mean",[8],BDL
same,"N-palmitoyl tryptophan level, Mean",[8],BDL
same,"N-palmitoyl tyrosine level, Mean",[8],1.01E-12
same,"N-palmitoyl valine level, Mean",[8],1.76E-13
same,"N-stearoyl GABA level, Mean",[8],1.9E-11
same,"N-stearoyl alanine level, Mean",[8],2.08E-12
same,"N-stearoyl ethanolamine level, Mean",[8],1.35E-11
same,"N-stearoyl glycine level, Mean",[8],2.96E-12
same,"N-stearoyl leucine level, Mean",[8],1.09E-12
same,"N-stearoyl methionine level, Mean",[8],4.14E-13
same,"N-stearoyl phenylalanine level, Mean",[8],7.89E-13
same,"N-stearoyl proline level, Mean",[8],BDL
same,"N-stearoyl serine level, Mean",[8],1.92E-11
same,"N-stearoyl tryptophan level, Mean",[8],BDL
same,"Oleic acid level, Mean",[8],4.73E-10
same,"PGE2 level, Mean",[8],2.39E-10
same,"PhosphoLEA level, Mean",[8],2.38E-11
same,"THC level, Mean",[8],BDL
same,"2-arachidonoyl glycerol, Direction (relative to Veh)",[9],↓
same,"2-arachidonoyl glycerol, Magnitude (x Veh level)",[9],0.80
same,"2-oleoyl glycerol, Direction (relative to Veh)",[9],↓
same,"2-oleoyl glycerol, Magnitude (x Veh level)",[9],0.74
same,"Arachidonic acid, Direction (relative to Veh)",[9],↓
same,"Arachidonic acid, Magnitude (x Veh level)",[9],0.78
same,2-linoleoyl glycerol Direction (relative to Veh),[10],↓
same,2-linoleoyl glycerol Magnitude (x Veh level),[10],0.77
same,phosphoLEA Direction (relative to Veh),[10],↓
same,phosphoLEA Magnitude (x Veh level),[10],0.70
same,"N-palmitoyl ethanolamine, Direction (relative to Veh)",[11],↓
same,"N-palmitoyl ethanolamine, Magnitude (x Veh level)",[11],0.82
